Data published in patent US20150268254A1, “SEBOCYTE CELL CULTURING AND METHODS OF USE” (Children's Hospital Medical Center, priority 2012, published 2015).

Columns and labels:
sebocytes = conditions: known effect of reference compound; cited from earlier work
SSG3 cells [1] = experiment: Lipogenesis assays (Nile red, Oil red O, electron microscopy, Nile red FACS) in SSG3 cells; format: cell-based, human
Procedure: (§1) For Nile red staining, cells or OCT sections were fixed 10 minutes at room temperature in 4% formaldehyde. After 3 wash in 1×PBS, staining with 0.1 pg/ml of Nile red (Sigma) was performed in 0.15M NaCl for 15 minutes at room temperature. For Oil red 0 staining, cells were fixed 15 minutes in 10% formalin, wash with water for 10 minutes and 60% isopropanol before being stained with Oil red 0 (0.7% in 60% isopropanol) for 45 minutes. Cells were rinsed with 60% isopropanol and the nuclei stained with haematoxylin. To trigger differentiation of sebocytes in vitro, linoleic acid (Sigma, 0.1 mM) was added directly to sebocyte media. To prepare cells for extraction of lipids, 20-30 millions of cells were pelleted, washed with 1×PBS and lipid were preserved in the dark at −80° C. under argon until analysis. The qualitative and quantitative composition of lipids in scalp-derived human sebocytes was determined using an Agilent 5973N Gas chromatograph/Mass spectrometer with a SPE cartridge (solid phase extraction) and was performed by Synelvia S.A.S (Labege, France).
Cells were cultured in 6-well plates at 80% confluence and infected with the lentivirus expressing the shRNAs as previously described. After puromycin selection for 48 h, cells were washed in 1×PBS and treated with working medium with or without Linoleic acid (0.1 mM) for 24 h. The cells were trypsinized, washed once with 1×PBS and neutral lipids were labeled with the fluorescent dye Nile red (1 pg/ml in PBS). 10,000 cells per sample were analyzed using a FACS Canto I (BD Biosciences) equipped with a blue laser (488 nm excitation).
Cells were grown at 80% confluency in sebocyte media and rinsed once with 0.175M sodium cacodylate buffer. Cells were fixed in 3% glutaraldehyde/0.175M cacodylate buffer for 1 hour at 4° C. Dishes were washed twice with 0.175M sodium cacodylate buffer. Cells were post fixed in 1% osmium tetroxide/cacodylate buffer for 1 hour at 4° C. before being washed three times with 0.175M sodium cacodylate buffer. After the final wash with 1.5 ml, cells were scraped and centrifuged for 5 min at 10K. The cell pellet was then resuspended in 1 ml 1% agarose (Type IX ultra-low gelling tempt, Sigma) overnight at 4° C. The samples were then processed through a graded series of alcohols, infiltrated and embedded in LX-112 resin (Ladd Research, Williston, Vt. After polymerization at 60° C. for three days, ultrathin sections (100 nm) were cut using a Reichert-Jung Ultracut E microtome and counterstained in 2% aqueous uranyl acetate and Reynolds lead citrate. Images were taken with a transmission electron microscope (Hitachi H-6750) equipped with a digital camera (AMT 2k×2K tem CCD).

SEB-1 [2] = experiment: Real-time PCR of PPARγ expression in immortalized sebocyte line SEB-1; format: cell-based, human; conditions: SEB-1, 0.1 mM linoleic acid, 48 h, vs untreated
Procedure: (§2) Total RNA was isolated using a Rneasy Mini Kit (Qiagen, Germantown, Md.) and used to produce cDNA (Maxima first strand cDNA synthesis kit, Fermentas, Waltham, Mass.). Reverse transcription (RT) reactions were diluted to 10 ng/pl and 1 pl of each RT was used for real-time PCR. Real-time PCR was performed using the CFX96 real-time PCR System, CFX Manager Software and the SsoFast EvaGreen Supermix reagents (Biorad, Hercules, Calif.). All reactions were run in triplicate and analyzed using the […] with relative expression normalized to GAPDH.
as §1, with “To trigger differentiation of sebocytes in vitro, linoleic acid (Sigma, 0.1 mM) was added directly to sebocyte media. To prepare cells for extraction of lipids, 20-30 millions of cells were pelleted, washed with 1×PBS and lipid were preserved in the dark at −80° C. under argon until analysis.” left out

SSG3 cells [3] = experiment: Real-time PCR of lipogenic gene expression in primary SSG3 sebocytes; format: cell-based, human
Procedure: To ablate TGFβRII in SSG3 cells, shRNA vectors from the CCHMC Heart Institute lenti-shRNA library core (shRNA TGFβRII #197031 and 194992 and a shRNA control) were used. The human library was purchased from Sigma-Aldrich (MISSION shRNA; St. Louis, Mo.). Viral vector was produced by the Viral Vector Core at the Translational Core Laboratories, Cincinnati Children's Hospital Research Foundation. Cells were grown to 80% confluency in 6-well plates before being infected with the lentivirus for 48 h. Infected cells were selected with 1 µg/ml puromycin (Sigma) for 48 h. Following selection, TGFβRII knock down cells were grown in regular media for 48 h before being activated with 5 ng/ml TGFβ1 for 24 h.
as §2, §1

NIKS = experiment: Immunoblot of Smad2 phosphorylation in NIKS keratinocytes; format: cell-based, human; conditions: 5 ng/ml TGFβ1, one hour
SEB-1 [4] = experiment: Immunoblot of Smad2 phosphorylation in SEB-1; format: cell-based, human; conditions: 5 ng/ml TGFβ1, one hour
[5] = tested on: sebocytes-derived from breast and face; experiment: Real-time PCR of lipogenic genes in breast- and face-derived sebocytes; format: cell-based, human; conditions: 5 ng/ml TGFβ1, 24 h
Procedure: as §2
RNA was isolated from sebocytes-derived from breast and face untreated or treated with 5 ng/ml of TGFβ1 for 24 h and used for real-time PCR. Two experiments were performed and all qPCR reactions were performed in triplicate. Data were normalized to GAPDH expression for each cell population and changes in relative expression were determined using untreated cells as a reference point.

SSG3 sebocytes = experiment: Immunoblot of Smad2 phosphorylation in SSG3 sebocytes; format: cell-based, human; conditions: 5 ng/ml TGFβ1, one hour
[6] = SSG3, 5 ng/ml TGFβ1, 24 h, vs untreated
[7] = TGFβRII-deficient SSG3 cells, TGFβ1

## C[C@]12CCC(=O)C[C@@H]1CC[C@@H]1[C@@H]2CC[C@]2(C)[C@@H](O)CC[C@@H]12 [5α-DHT, di-hydrotestosterone]
sebocytes
  effect on lipogenesis: increase lipogenesis
  effect on proliferation: increase proliferation

## CC(=O)O[C@]1(C(C)=O)CC[C@H]2[C@@H]3C=C(Cl)C4=CC(=O)[C@@H]5C[C@@H]5[C@]4(C)[C@H]3CC[C@@]21C [Cyproteron acetate]
sebocytes
  effect on lipogenesis: decrease lipogenesis

## C[C@]12CC[C@H](O)CC1=CC[C@@H]1[C@@H]2CC[C@]2(C)C(=O)CC[C@@H]12 [DHEA, 5-Dehydroepiandrosterone]
sebocytes
  effect on lipogenesis: increase lipogenesis

## CC1=C(/C=C/C(C)=C/C=C/C(C)=C\C(=O)O)C(C)(C)CCC1 [Isotretinoin, 13-cis retinoic acid]
sebocytes
  effect on cell cycle: cell cycle arrest
  effect on proliferation: anti-proliferative effect on sebocytes

## CN(CCOc1ccc(CC2SC(=O)NC2=O)cc1)c1ccccn1 (stereo not shown) [Rosglitazone]
sebocytes
  effect on lipogenesis: decrease lipogenesis

## CCCCC/C=C\C/C=C\CCCCCCCC(=O)O [linoleic acid]
SSG3 cells [1]; SSG3, 0.1 mM linoleic acid, 24 h
  Nile red flow cytometry: fluorescence (neutral lipids) and granularity: increase of fluorescence and granularity
SSG3 cells [1]; SSG3, after linoleic acid treatment vs untreated
  lipid droplets by electron microscopy: increase of lipid droplets with higher electron density
SSG3 cells [1]; SSG3, two days of linoleic acid treatment (0.1 mM)
  cellular lipid distribution by Nile red stain: producing lipids
SEB-1 [2]
  PPARγ expression: do not show any significant changes
SSG3 cells [3]; SSG3 cells, 0.1 mM linoleic acid, 24 h and 48 h, vs untreated
  FADS2 expression: significant increase of FADS2 expression
SSG3 cells [3]; SSG3 cells, 0.1 mM linoleic acid, 48 h, vs untreated
  PPARγ expression: increase in PPARγ

## TGFβ1: exogenously recombinant TGFβ1, Transforming Growth Factor β ligand
NIKS
  Smad2 activation (phosphorylated Smad2): activate Smad2
SEB-1 [4]
  Smad2 activation (phosphorylated Smad2): activate Smad2
SSG3 cells [1]; SSG3 expressing TGFβRII shRNA, TGFβ1 5 ng/ml, 24 h
  lipid production: no effect on the lipid production
SSG3 cells [1]; SSG3 with non-targeting shRNA control, TGFβ1 5 ng/ml, 24 h
  lipid inclusion: decrease in lipid inclusion
[5]
  FADS2 expression: decreased significantly
  PPARγ expression: decreased significantly
SSG3 cells [3]; [6]
  mRNA expression of FADS2: significantly decreased
  mRNA expression of PPARγ: significantly decreased
SSG3 cells [3]; [7]
  decrease in FADS2 gene expression after TGFβ1: not detected
  decrease in PPARγ gene expression after TGFβ1: not detected
SSG3 cells [3]; control SSG3 cells treated with TGFβ for 24 h
  TGFβRII expression: decrease of TGFβRII
SSG3 sebocytes
  Smad2 activation (phosphorylated Smad2): activate Smad2
